From patent publication US11376259B2, “Targeted treatment of mature T-cell lymphoma” (Eli Lilly and Company, priority 2016, dated 2022)

Experiments:
AITL = test: Clinical evaluation in patients with relapsed or refractory peripheral T-cell lymphoma (AITL patients); assay type: in vivo, human; conditions: cycle 1, oral capsules T.I.W., preliminary data
From the text: (§1) A study of 4,4,4-Trifluoro-N-[(1S)-2-[[(7S)-5-(2-hydroxyethyl)-6-oxo-7H-pyrido[2,3-d][3]benzazepin-7-yl]amino]-1-methyl-2-oxo-ethyl]butanamide hydrate in patients with advanced or metastatic cancer.
(§2) This study is a multicenter, nonrandomized, open-label, dose-escalation study followed by cohort expansion of oral dosed 4,4,4-trifluoro-N-[(1S)-2-[[(7S)-5-(2-hydroxyethyl)-6-oxo-7H-pyrido[2,3-d][3]benzazepin-7-yl]amino]-1-methyl-2-oxo-ethyl]butanamide hydrate in outpatients with advanced or metastatic cancer.
Cohort expansion of oral 4,4,4-trifluoro-N-[(1S)-2-[[(7S)-5-(2-hydroxyethyl)-6-oxo-7H-pyrido[2,3-d][3]benzazepin-7-yl]amino]-1-methyl-2-oxo-ethyl]butanamide hydrate in outpatients with advanced or metastatic cancer. Patients will be entered based on screened molecular alterations related to the Notch pathway. Patients initially dosed with 75 mg/dose administered T.I.W. are dose-reduced to 50 mg/dose administered T.I.W. […]
(§3) Efficacy: Efficacy will be assessed using Response Evaluation Criteria in Solid Tumors (RECIST) v1.1 or using the Cheson et al., J. Clin. Oncol., 2007, 25(5): 579-586, response criteria for lymphoma. Each patient will be assessed by 1 or more of the following radiologic tests for tumor measurement: X-ray computerized tomography (CT) scan; magnetic resonance imaging (MRI); chest X-ray; positron emission tomography (PET) scan; dynamic contrast enhanced-magnetic resonance imaging (DCE-MRI); PET/CT imaging Standardized Uptake Values (SUVMAX); Dynamic Contrast-Enhanced Ultrasonography (DCE-US).
Each patient's full extent of disease will also be assessed with: applicable tumor measurement by RECIST 1.1 (Eisenhauer et al., Eur J Cancer. 2009, 45(2): 228-247); Cheson et al., J. Clin. Oncol., 2007, 25(5): 579-586; and Choi et al., J Clin Oncol. […] To confirm objective responses, all lesions should be radiologically assessed, and the same radiologic method used for the initial response determination should be repeated at least 4 weeks following the initial observation of an objective response, using the sample method that was used at baseline. […]

PTCL-NOS = test: Clinical evaluation in patients with relapsed or refractory peripheral T-cell lymphoma (PTCL-NOS patient); assay type: in vivo, human; conditions: Patient 3, PTCL-NOS, cycle 1, oral capsules T.I.W., preliminary data
From the text: as §1
as §2, with “cancer. […]” for “cancer.”
as §3
Each patient's full extent of disease will also be assessed with: applicable tumor measurement by RECIST 1.1 (Eisenhauer et al., Eur J Cancer. 2009, 45(2): 228-247); Cheson et al., J. Clin. Oncol., 2007, 25(5): 579-586; and Choi et al., J Clin Oncol. […]

[1] = Atropisomer equilibrium in solution by 1H NMR and LC-MS; assay type: physicochemical; conditions: ambient temperature, after 24 hours
Description: In aqueous solutions, 8-9% of atropisomer 2 (minor atropisomer) is detected by ^1H NMR and LC-MS in equilibrium with atropisomer 1 (major atropisomer) at ambient temperature after 24 hours. In organic solvents, at ambient temperature after 24 hours, approximately 1-2% of atropisomer 2 is detected by ^1H NMR and LC-MS in equilibrium with atropisomer 1. Although detectable by ^1H NMR and LC-MS analysis, atropisomer 2 is not isolable.

Row | atropisomer 2 (minor atropisomer) detected in equilibrium with atropisomer 1 ([1]; aqueous solutions) | atropisomer 2 (minor atropisomer) detected in equilibrium with atropisomer 1 ([1]; organic solvents) | Compound | CT Scan assessment: Tumor decrease (AITL; Patient 1, AITL) | PET Scan (response) (AITL; Patient 1, AITL) | CT Scan assessment: Tumor decrease (AITL; Patient 2, AITL) | CT Scan assessment (PTCL-NOS) | Other assessments: Abnormal T cells (PTCL-NOS)
1 |  |  | C[C@H](NC(=O)CCC(F)(F)F)C(=O)N[C@@H]1C(=O)N(CCO)c2ncccc2-c2ccccc21 [4,4,4-trifluoro-N-[(1S)-2-[[(7S)-5-(2-hydroxyethyl)-6-oxo-7H-pyrido[2,3-d][3]benzazepin-7-yl]amino]-1-methyl-2-oxo-ethyl]butanamide hydrate] | of 80% | Partial | of 20% | Stable | Decrease of
2 | 8-9% | 1-2% | C[C@H](NC(=O)CCC(F)(F)F)C(=O)N[C@@H]1C(=O)N(CCO)c2ncccc2-c2ccccc21 [Compound 1, 4,4,4-trifluoro-N-[(1S)-2-[[(7S)-5-(2-hydroxyethyl)-6-oxo-7H-pyrido[2,3-d][3]benzazepin-7-yl]amino]-1-methyl-2-oxo-ethyl]butanamide] |  |  |  |  | 
